The subject of data set [1] is BT-20. Conditions: for induction of apoptosis by NF-κB blockers: PGA1 100 μM 20 hours, CAPE 50 μg/ml 17 hours, parthenolide 2.5 μg/ml 4 hours.
Data set [2] relates to MDA-MD-231. Conditions: for induction of apoptosis by NF-κB blockers: PGA1 100 μM 20 hours, CAPE 50 μg/ml 17 hours, parthenolide 2.5 μg/ml 4 hours.
Data set [3] has as its system JNK activation in 3DO cells. Put plainly: JNK activation by TNFα in 3DO cells (Western blots, JNK kinase assays). In kind it is cell-based. The protocol: Plasmids were transfected as indicated along with pEGFP (Clontech). […] Inhibitors (Calbiochem) and concentrations are as indicated.
Northern blots were performed by standard procedures using 6 μg of total RNA. The EMSAs with the palindromic probes and the preparation of whole cell extracts were as previously described (Franzoso et al., 1992). For western blots, cell extracts were prepared either in a modified lysis buffer (50 mM Tris, pH 7.4, 100 mM NaCl, 50 mM NaF, 1 mM NaBo4, 30 mM pyrophosphate, 0.5% NP-40, and protease inhibitors (FIG. 1B; Boehringer Mannheim), in Triton X-100 buffer (FIG. 4A; Medema et al., 1997) or in a lysis buffer containing 1% NP-40 350 mM NaCl, 20 MM HEPES (pH 8.0), 20% glycerol, 1 mM MgCl2, 0.1 mM EGTA, 0.5 mM DTT, 1 mM Na3VO4, 50 mM NaF and protease inhibitors. Each time, equal amounts of proteins (ranging between 15 and 50 μg) were loaded and Western blots prepared according to standard procedures. Reactions were visualized by ECL (Amersham). Antibodies were as follows: IκBα, Bid, and β-actin from Santa Cruz Biotechnology; caspase-6, -7 and -9, phospho and total -p38, phosph and total -ERK, phospho and total -JNK from Cell Signaling Technology; caspase-8 from Alexis; Caspase-2 and -3 from R&D systems. The Gadd45β-specific antibody was generated against an N-Terminal peptide. Kinase assays were performed with recombinant GST-c-jun and anti-JNK antibodies (Pharmingen), (Lin et al., 1995).
For orientation: Immunoblotting shows a protein as a band on a membrane.

For data set [4] the following is noted: in vivo, cited from earlier work.
Data set [5] concerns 3DO-IκBαM cells. As to the kind of experiment: Survival of 3DO-IκBαM cells pretreated with MAPK inhibitors, then TNFα. Conditions: TNFα 25 U/ml 12 hours. On the procedure:
FIG. 5a: Kinetics of JNK activation by TNKα (1000 U/ml) in 3DO—IκBαM and 3DO-Neo clones. Western blots with antibodies specific for phosphorylated (P) or total JNK (top and middle, respectively) and JNK kinase assays (bottom). […] CHX treatments were carried out for 30 minutes in addition to the indicated time. FIG. 5d: Survival of transfected RelA−/− MEFs following treatment with TNFα (1000 U/ml) plus CHX ([…]) for 10 hours. Plasmids were transfected as indicated along with pEGFP (Clontech). FIG. 5e: Survival of 3DO-IκBαM cells pretreated with MAPK inhibitors for 30 minutes and then incubated with either TNFα (25 U/ml) or PBS for an additional 12 hours. Inhibitors (Calbiochem) and concentrations are as indicated. In (d) and (e), values represent the mean of three independent experiments.
MEF and 3DO cells were cultured in 10% Fetal bovine serum-supplemented DMEM and RPMI, respectively. Transient transfections in RelA−/− MEF were performed by Superfect according to the manufacturer's instructions (Qiagen). After cytotoxic treatment with CHX (Sigma) plus or minus TNFα (Peprotech), adherent cells were counted and analyzed by FCM (FACSort, Becton Dickinson) to assess numbers of live GFP^+ cells. To generate 3DO stable lines, transfections were carried out by electroporatoration (BTX) and clones were grown in appropriate selection media containing Geneticin (Gibco) and/or Hygromycin (Invitrogen). […] Daunorubicin, PMA, Ionomycin, hydrogen peroxide, and sorbitol were from Sigma; Cisplatin (platinol AQ) was from VHAplus, PD98059 and SB202190 were from Calbiochem.

In data set [6] the target is T1, JNKK2/MKK7 (Homo sapiens, UniProt O14733, Q133P/Q94H).
T1 construct: expressed in transfected cells; host or cells: HEK-293, TNFα-treated or untreated; anti-FLAG immunoprecipitate
T1 sequence (O14733 1-401 Q94H/Q133P limits assumed): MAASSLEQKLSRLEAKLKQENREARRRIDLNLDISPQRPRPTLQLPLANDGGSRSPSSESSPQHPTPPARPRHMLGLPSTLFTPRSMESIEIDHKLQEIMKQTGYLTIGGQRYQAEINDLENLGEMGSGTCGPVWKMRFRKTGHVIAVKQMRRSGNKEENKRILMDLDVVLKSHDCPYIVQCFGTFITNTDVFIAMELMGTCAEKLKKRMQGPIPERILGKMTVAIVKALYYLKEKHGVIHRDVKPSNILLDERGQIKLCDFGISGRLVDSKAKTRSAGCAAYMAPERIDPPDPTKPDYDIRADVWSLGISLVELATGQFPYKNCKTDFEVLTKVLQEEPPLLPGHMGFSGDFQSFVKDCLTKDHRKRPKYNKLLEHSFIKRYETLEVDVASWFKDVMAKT
Put plainly: Kinase assay of immunoprecipitated FLAG-JNKK2/MKK7 (GST-JNK1 substrate) pre-incubated with recombinant Gadd45β proteins or peptides. It counts as biochemical. Conditions: active MKK7 from TNFα-activated 293 cells, GST-JNK1 substrate. On the procedure: Next, the functional consequences, in vitro, of the physical interactions of Gadd45β with kinases in the JNK pathway were assessed. Murine and human, full-length Gadd45J3 proteins were purified from E. coli as GST-Gadd45β and His6-tagged Gadd45β (His6 disclosed as SEQ ID NO: 46), respectively, according to standard procedures. Prior to employing these proteins in in vitro assays, purity of all recombinant polypeptides was assured by >98%, by performing Coomassie blue staining of SDS polyacrylamide gels. Then, the ability of these proteins, as well as of control GST and His6-EF3 (His6 disclosed as SEQ ID NO: 46)proteins, to inhibit kinases in the JNK pathways was monitored in vitro. FLAG-tagged JNKK2, JNKK1, MKK3, and ASK1 were immunoprecipitated from transiently transfected 293 cells using anti-FLAG antibodies and pre-incubated for 10 minutes with increasing concentrations of recombinant proteins, prior to the addition of specific kinase substrates (i.e. GST-JNK1 with JNKK1 and JNKK2; GST-p38[…] with MKK3; GST-JNNK1 or GST-JNKK2 with ASK1). […] These findings indicate that, upon binding to Gadd45β, JNKK2 is effectively inactivated.
A question was whether Gadd45β inhibited active MKK7, in vitro. FLAG-MKK7 was immunoprecipitated from TNFα-treated or untreated 293 cells, and kinase assays were performed in the presence of purified His6-Gadd45β (His6 disclosed as SEQ ID NO: 46), GST-Gadd45β, or control proteins (FIG. 28d; see also FIG. 28g). […] Consistent with the in vivo findings (FIG. 27), the inhibitory activity of Gadd45β was specific. […] Indeed, the effects of Gadd45β on MKK7 phosphorylation by TNFα may be due inhibition of the MKK7 ability to auto-phoshorylate and/or to serve as substrate for upstream kinases. Altogether, the findings identify MKK7 as a target of Gadd45β, and of NF-[…]B, in the JNK cascade. Of interest, MKK7 is a selective activator of JNK, and its ablation abolishes JNK activation by TNFα. Thus, blockade of MKK7 is sufficient on its own to explain the effects of Gadd45β on JNK signaling—i.e. its specific and near-complete suppression of this signaling.
Active MKK7 was immunoprecipitated from TNFα-activated 293 cells and MKK7 kinase assays were performed using GST-JNK1 substrates and pure recombinant Gadd45β polypeptides (FIG. 37B; a schematic diagram representing the Gadd45βpolypeptides used is shown in FIG. 37A). […] MKK7 kinase assays were performed as in FIG. 37B, except that pure synthetic Gadd45, peptides (whose sequences are shown in FIG. 37C) were used instead of pure recombinant Gadd45β proteins. The amino acid region between amino acids 58 and 77 of Gadd45βis used for the Gadd45β-mediated inhibition of MKK7. […]

The mark [7] stands for this setting: concomitant treatment with PGA1, CAPE or parthenolide.

“Also recorded” adds a separate entry of the source. Counter-ions that a name gives are not always drawn. Peptide text beside a SMILES is read from it. * marks the point of attachment. Cbz = O=C(OCc1ccccc1)*; CH2F = FC*

In the case of `O=C(/C=C/c1ccc(O)c(O)c1)OCCc1ccccc1` [CAPE], the “induction of apoptosis by NF-κB blockers” value in data set [1] and in data set [2] was “induced apoptosis rapidly” in each case.

In the case of `C[C@@H]1C[C@@H]([C@H](O)CC2CC(=O)NC(=O)C2)C(=O)[C@@H](C)C1` [CHX, cycloheximide], in data set [3] (3DO cells, CHX alone), the “JNK activation by agent alone” value was “no effect”. Besides, the “down-regulation of TNFα-induced JNK” value in data set [3] (parental 3DO cells, TNFα 1000 U/ml plus CHX 10 μg/ml) is reported as “impaired”.

In the case of `N.N.[Cl][Pt][Cl]` [Cisplatin], the oral absorption result in data set [4] is listed as “not absorbed orally”.

With `COc1cccc(-c2cc(=O)c3ccccc3o2)c1N` [PD98059], in data set [5] (30 min pretreatment), the “antagonism of TNFα cytotoxicity” value is “could not antagonize”.

As for `Oc1ccc(-c2nc(-c3ccncc3)c(-c3ccc(F)cc3)[nH]2)cc1` [SB202190], the “cell survival under TNFα” value in data set [5] (high concentrations, 50 μM) is “dramatically enhanced cell survival; also recorded: rescues”. For the same molecule, in data set [5] (low concentrations, 5 μM and lower), the “antagonism of TNFα cytotoxicity” value was “could not antagonize”.

In the case of `Oc1c2ccccc2c2c3c(cccc13)N=N2` [SP600125], the “rescue from cytotoxicity induced by inhibition of NF-κB” value in data set [1] (setting [7]) and in data set [2] (setting [7]) was “can be rescued; also recorded: dramatically rescued” throughout.

With `COc1cccc2c1C(=O)c1c(O)c3c(c(O)c1C2=O)C[C@@](O)(C(C)=O)C[C@@H]3O[C@H]1C[C@H](N)[C@H](O)[C@H](C)O1` [daunorubicin, 5,12-Naphthacenedione, (8S-cis)-8-acetyl-10-[(3-amino-2,3,6-trideoxy-a-L-lyxo-hexanopyranosyl)oxy]-7,8,9,10-tetrahydro-6,8,11-trihydroxy-10-methoxy-, hydrochloride], in data set [4], the oral absorption result was “poor”, the half-life of elimination entry is listed as “about 19 hr” and the “secreted into the bile” value is on record as roughly 40%.

`COc1cccc2c1C(=O)c1c(O)c3c(c(O)c1C2=O)C[C@@](O)([C@H](C)O)C[C@@H]3O[C@H]1C[C@H](N)[C@H](O)[C@H](C)O1` [daunorubicinol]: the “half-life of active metabolite” value in data set [4] is “about 27 hr”.

Consider `CCCCC[C@H](O)/C=C/[C@H]1C=CC(=O)[C@@H]1CCCCCCC(=O)O` [prostaglandin A1], for which the “induction of apoptosis by NF-κB blockers” value in data set [1] and in data set [2] was “induced apoptosis rapidly” in each case.

Consider `COC(=O)C[C@H](NC(=O)[C@H](C)NC(=O)[C@@H](NC(=O)OCc1ccccc1)C(C)C)C(=O)CF` [zVAD-fik] (Cbz-Val-Ala-Asp(OMe)-CH2F), for which the “late (160 minutes, caspase-dependent) rise of JNK activation by TNFα” value in data set [3] (IκBαM-Hygro 3DO clones) is “could be prevented”.

For “AIDEEEEDDIALQIHFTLIQSFCCDND [amino acids 60-86, positions 60-86 of Gadd45β]”, the “inhibition of MKK7 activity by Gadd45β-derived peptides / polypeptide regions” value in data set [6] is on record as “sufficient to also inhibit MKK7 activity”.

These data come from patent US7326418B2, “Identification of novel factors that block programmed cell death or apoptosis by targeting JNK” (University of Chicago, priority 2001, dated 2008).
